Results: patent US20230339952A1, “MACROCYCLIC HETEROCYCLES AND USES THEREOF” (Kumquat Biosciences Inc., priority 2022, published 2023)
pIC50: −log10 of the molar value. Read-outs that look alike come from different tables or passages of the source.

Assays:
[1] = target: SOS1 (Homo sapiens (Human), UniProt Q07889); assay: Ras-SOS interaction assay (HTRF), K-Ras G13D utilized; type: binding; conditions: K-Ras G13D
[2] = system: NCI-H1975 (ATCC CRL-5908) cell line comprising an EGFR T790M L858R double mutation; assay: EGFR-SOS cellular inhibition assay (CellTiter-Glo cell proliferation); type: cell-based; conditions: Homo sapiens
Protocol: A CellTiter-Glo (CTG) luminescent based assay (Promega) is used to assess growth of the cells, as a measurement of the ability of the compounds herein to inhibit EGFR signaling in the cells. […] The day after plating, cells are treated with a dilution series (e.g., a 9 point 3-fold dilution series) of the compounds herein (e.g., approximately 125 μL final volume per well).

[3] = system: MIA PaCa-2 cells (K-Ras G12C); assay: Ras-SOS cellular growth inhibition assay (CellTiter-Glo); conditions: Homo sapiens, MIA PaCa-2, 120 h, read-out: IC50 in inhibiting MIA PaCa-2 cell growth
Protocol: A CellTiter-Glo (CTG) luminescent based assay (Promega) is used to assess growth of the cells, as a measurement of the ability of the compounds herein to inhibit Ras signaling in the cells. […] The day after plating, cells are treated with a dilution series (e.g., a 9 point 3-fold dilution series) of the compounds herein (e.g., approximately 125 μL final volume per well). Cell viability can be monitored (e.g., approximately 5 days later) according to the manufacturer's recommended instructions, where the CellTiter-Glo reagent is added (e.g., approximately 65 μL), vigorously mixed, covered, and placed on a plate shaker (e.g., approximately for 20 min) to ensure sufficient cell lysis prior to assessment of luminescent signal. The IC50 values are determined using the four-parameter fit. The resulting IC50 value is a measurement of the ability of the compounds herein to reduce cell growth of Ras-driven cells as representative tumor cells.

[4] = 120 h, NCI-H1975 cell proliferation, approximately 5 days, read-out: H1975 IC50
[5] = NCI-H1975, EGFR T790M L858R double mutation, read-out: IC50 in inhibiting growth of NCI-H1975 cell line
[6] = read-out: IC50 value against SOS1

SOS1, sequence (Q07889 564-1049): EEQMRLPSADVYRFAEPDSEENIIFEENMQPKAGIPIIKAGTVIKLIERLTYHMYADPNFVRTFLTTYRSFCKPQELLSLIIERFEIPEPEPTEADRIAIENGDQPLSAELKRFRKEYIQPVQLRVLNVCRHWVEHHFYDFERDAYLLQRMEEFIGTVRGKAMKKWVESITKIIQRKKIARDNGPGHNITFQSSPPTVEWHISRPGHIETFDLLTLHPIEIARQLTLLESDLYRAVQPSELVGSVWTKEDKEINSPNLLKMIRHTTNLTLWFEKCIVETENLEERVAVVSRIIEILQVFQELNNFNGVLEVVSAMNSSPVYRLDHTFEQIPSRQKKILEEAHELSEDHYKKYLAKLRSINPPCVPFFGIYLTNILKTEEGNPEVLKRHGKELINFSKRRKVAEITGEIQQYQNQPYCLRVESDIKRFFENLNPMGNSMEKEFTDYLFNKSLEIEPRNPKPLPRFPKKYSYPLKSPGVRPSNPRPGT

pIC50 ([1]; read-out: SOS1 IC50)	pIC50 [2, 4]	pIC50 [2, 5]	pIC50 [3]	pIC50 [1, 6]	Compound
> 7.00	> 6.00	> 6.30	> 6.00		C[C@H]1Nc2nc(=O)n(c3c2cc(C2(C#N)CC2)c(=O)n3C)CC/C=C\CN2CCC(CC2)C(F)(F)c2cccc1c2 [Compound 6, 1-((6^3E,4R,9Z)-2,2-difluoro-6^8,4-dimethyl-6^2,6^7-dioxo-6^1,6^2,6^7,6^8-tetrahydro-5-aza-6(4,1)-pyrido[2,3-d]pyrimidina-1(4,1)-piperidina-3(1,3)-benzenacycloundecaphan-9-en-6^6-yl)cyclopropane-1-carbonitrile]
5.30 to 7.00	> 6.00		> 6.00		Cc1nc2c3cc(C4(C#N)CC4)c(=O)n(c3n1)CCCCCCCCC(C)(O)C(F)(F)c1cccc(c1)[C@@H](C)N2 (stereo partly drawn) [Compound 9, 1-((3R)-5,5-difluoro-6-hydroxy-1^2,3,6-trimethyl-1^7-oxo-1^7,1^8-dihydro-2-aza-1(4,8)-pyrido[2,3-d]pyrimidina-4(1,3)-benzenacyclotetradecaphane-1^6-yl)cyclopropane-1-carbonitrile]
	> 6.00	> 6.30	> 6.00		C[C@H]1Nc2ncnc3c2cc(C2(C#N)CC2)c(=O)n3CCCCCCCCN2CCC(CC2)C(F)(F)c2cccc1c2 [Compound 54, 1-((4R)-2,2-difluoro-4-methyl-6^7-oxo-6^7,6^8-dihydro-5-aza-6(4,8)-pyrido[2,3-d]pyrimidina-1(4,1)-piperidina-3(1,3)-benzenacyclotetradecaphane-6^6-yl)cyclopropane-1-carbonitrile]
> 7.00	> 6.00	> 6.30	> 6.00	> 7.30	C[C@H]1Nc2ncnc3c2cc(C2(C#N)CC2)c(=O)n3CCCCCCCN2CCC(CC2)C(F)(F)c2cccc1c2 [Compound 61, 1-((4R)-2,2-difluoro-4-methyl-6^7-oxo-6^7,6^8-dihydro-5-aza-6(4,8)-pyrido[2,3-d]pyrimidina-1(4,1)-piperidina-3(1,3)-benzenacyclotridecaphane-6^6-yl)cyclopropane-1-carbonitrile]
> 7.00	> 6.00	> 6.30	> 6.00	> 7.30	Cc1nc2c3cc(C4CCS(=O)(=O)CC4)c(=O)n(c3n1)CCCCC/C=C\CC(C)(O)C(F)(F)c1cccc(c1)[C@@H](C)N2 (stereo partly drawn) [Compound 101, (3R,Z)-1^6-(1,1-dioxidotetrahydro-2H-thiopyran-4-yl)-5,5-difluoro-6-hydroxy-1^2,3,6-trimethyl-1^7,1^8-dihydro-2-aza-1(4,8)-pyrido[2,3-d]pyrimidina-4(1,3)-benzenacyclotetradecaphan-8-en-1^7-one]
> 7.00	> 6.00	> 6.30	> 6.00	> 7.30	C[C@H]1Nc2ncnc3c2cc(C2(C#N)CC2)c(=O)n3CCCCC/C=C\CN2CCC(CC2)C(F)(F)c2cccc1c2 [Compound 120, 1-((4R,Z)-2,2-difluoro-4-methyl-6^7-oxo-6^7,6^8-dihydro-5-aza-6(4,8)-pyrido[2,3-d]pyrimidina-1(4,1)-piperidina-3(1,3)-benzenacyclotetradecaphan-12-en-6^6-yl)cyclopropane-1-carbonitrile]
> 7.00	> 6.00				C[C@H]1Nc2ncnc3c2cc(N2CCN(C4COC4)CC2)c(=O)n3CCCCCCCN2CCC(CC2)C(F)(F)c2cccc1c2F [Compound 179, (4R)-3^2,2,2-trifluoro-4-methyl-6^6-(4-(oxetan-3-yl)piperazin-1-yl)-6^7,6^8-dihydro-5-aza-6(4,8)-pyrido[2,3-d]pyrimidina-1(4,1)-piperidina-3(1,3)-benzenacyclo-tridecaphan-6^7-one]
> 7.00	> 6.00				C[C@H]1Nc2ncnc3c2cc(N2CCN(S(C)(=O)=O)CC2)c(=O)n3CCCCCCCN2CCC(CC2)C(F)(F)c2cccc1c2F [Compound 180, (4R)-3^2,2,2-trifluoro-4-methyl-6^6-(4-(methylsulfonyl)piperazin-1-yl)-6^7,6^8-dihydro-5-aza-6(4,8)-pyrido[2,3-d]pyrimidina-1(4,1)-piperidina-3(1,3)-benzenacyclotride-caphan-6^7-one]
> 7.00	> 6.00				C[C@H]1Nc2ncnc3c2cc(N2CCS(=O)(=O)CC2)c(=O)n3CCCCCN2CCC(CC2)CCC(F)(F)c2cccc1c2 [Compound 181, (3R)-1^6-(1,1-dioxidothiomorpholino)-5,5-difluoro-3-methyl-1^7,1^8-dihydro-2-aza-1(4,8)-pyrido[2,3-d]pyrimidina-8(4,1)-piperidina-4(1,3)-benzenacyclotridecaphan-1^7-one]
> 7.00	> 6.00				C[C@H]1Nc2ncnc3c2cc(N2CCS(=O)(=O)CC2)c(=O)n3CCCOCCCCN2CCC(CC2)C(F)(F)c2cccc1c2 [Compound 186, (4R)-6^6-(1,1-dioxidothiomorpholino)-2,2-difluoro-4-methyl-6^7,6^8-dihydro-10-oxa-5-aza-6(4,8)-pyrido[2,3-d]pyrimidina-1(4,1)-piperidina-3(1,3)-benzenacyclotetradecaphan-6^7-one]
> 7.00	> 6.00				C[C@H]1Nc2ncnc3c2cc(C2(C#N)CCS(=O)(=O)CC2)c(=O)n3CCCOCCCN2CCC(CC2)CC(F)(F)c2cccc1c2 [Compound 189, 4-((3R)-5,5-difluoro-3-methyl-1^7-oxo-1^7,1^8-dihydro-11-oxa-2-aza-1(4,8)-pyrido[2,3-d]pyrimidina-7(4,1)-piperidina-4(1,3)-benzenacyclotetradecaphane-1^6-yl)tetrahydro-2H-thiopyran-4-carbonitrile 1,1-dioxide]
> 7.00	> 6.00				CC(C)N1CCN(c2cc3c4ncnc3n(c2=O)CCCOCCCCN2CCC(CC2)C(F)(F)c2cccc(c2)[C@@H](C)N4)CC1 [Compound 190, (4R)-2,2-difluoro-6^6-(4-isopropylpiperazin-1-yl)-4-methyl-6^7,6^8-dihydro-10-oxa-5-aza-6(4,8)-pyrido[2,3-d]pyrimidina-1(4,1)-piperidina-3(1,3)-benzenacyclotetradecaphan-6^7-one]
> 7.00	> 6.00				C[C@H]1Nc2ncnc3c2cc(C2CCS(=O)(=O)CC2)c(=O)n3CCCOCCCN2CCC(CC2)CC(F)(F)c2cccc1c2F [Compound 191, (3R)-1^6-(1,1-dioxidotetrahydro-2H-thiopyran-4-yl)-4^2,5,5-trifluoro-3-methyl-1^7,1^8-dihydro-11-oxa-2-aza-1(4,8)-pyrido[2,3-d]pyrimidina-7(4,1)-piperidina-4(1,3)-benzenacyclotetradecaphan-1^7-one]
> 7.00	> 6.00				C[C@H]1Nc2ncnc3c2cc(C2CCS(=O)(=O)CC2)c(=O)n3CCCOCCCCN2CCC(CC2)C(F)(F)c2cccc1c2F [Compound 203, (4R)-6^6-(1,1-dioxidotetrahydro-2H-thiopyran-4-yl)-3^2,2,2-trifluoro-4-methyl-6^7,6^8-dihydro-10-oxa-5-aza-6(4,8)-pyrido[2,3-d]pyrimidina-1(4,1)-piperidina-3(1,3)-benzenacyclotetradecaphan-6^7-one]
> 7.00	> 6.00	> 6.30		> 7.30	C[C@H]1Nc2ncnc3c2cc(N2CCS(=O)(=O)CC2)c(=O)n3CCCOCCCCN2CC(C2)CC(F)(F)c2cccc1c2 [Compound 209, (3R)-1^6-(1,1-dioxidothiomorpholino)-5,5-difluoro-3-methyl-1^7,1^8-dihydro-12-oxa-2-aza-1(4,8)-pyrido[2,3-d]pyrimidina-7(3,1)-azetidina-4(1,3)-benzenacyclopentade-caphan-1^7-one]
> 7.00	> 6.00	> 6.30		> 7.30	C[C@H]1Nc2ncnc3c2cc(C2(C#N)CCS(=O)(=O)CC2)c(=O)n3CCCCCCCN2CC(C2)CC(F)(F)c2cccc1c2 [Compound 210, 4-((3R)-5,5-difluoro-3-methyl-1^7-oxo-1^7,1^8-dihydro-2-aza-1(4,8)-pyrido[2,3-d]pyrimidina-7(3,1)-azetidina-4(1,3)-benzenacyclotetradecaphane-1^6-yl)tetrahydro-2H-thiopyran-4-carbonitrile 1,1-dioxide]
> 7.00	> 6.00	> 6.30		> 7.30	C[C@H]1Nc2ncnc3c2cc(N2CCS(=O)(=O)CC2)c(=O)n3CCCCCCCN2CC(C2)CC(F)(F)c2cccc1c2 [Compound 211, (3R)-1^6-(1,1-dioxidothiomorpholino)-5,5-difluoro-3-methyl-1^7,1^8-dihydro-2-aza-1(4,8)-pyrido[2,3-d]pyrimidina-7(3,1)-azetidina-4(1,3)-benzenacyclotetradecaphan-1^7-one]
> 7.00	> 6.00	> 6.30		> 7.30	C[C@H]1Nc2ncnc3c2cc(C2CCS(=O)(=O)CC2)c(=O)n3CCCCCCCN2CC(C2)CC(F)(F)c2cccc1c2F [Compound 212, (3R)-1^6-(1,1-dioxidotetrahydro-2H-thiopyran-4-yl)-4^2,5,5-trifluoro-3-methyl-1^7,1^8-dihydro-2-aza-1(4,8)-pyrido[2,3-d]pyrimidina-7(3,1)-azetidina-4(1,3)-benzenacyclotetradecaphan-1^7-one]
> 7.00	> 6.00	> 6.30		> 7.30	C[C@H]1Nc2ncnc3c2cc(C2(C#N)CCS(=O)(=O)CC2)c(=O)n3CCCCCCN2CC(CCC(F)(F)c3cccc1c3)C2 [Compound 213, 4-((3R)-5,5-difluoro-3-methyl-1^7-oxo-1^7,1^8-dihydro-2-aza-1(4,8)-pyrido[2,3-d]pyrimidina-8(3,1)-azetidina-4(1,3)-benzenacyclotetradecaphane-1^6-yl)tetrahydro-2H-thiopyran-4-carbonitrile 1,1-dioxide]
